The series in a line: Haemolysis assay. Particulars: rabbit, rabbit red blood cell suspension. It counts as cell-based.

`C[C@@H]1[C@H](O)[C@@H](C)/C=C/C=C/C=C/C=C/C=C/C=C/C=C/[C@H](O[C@@H]2O[C@H](C)[C@@H](O)[C@H](N)[C@@H]2O)C[C@@H]2O[C@](O)(C[C@@H](O)C[C@@H](O)[C@H](O)CC[C@@H](O)C[C@@H](O)CC(=O)O[C@H]1C)C[C@H](O)[C@H]2C(=O)O` [AmB, amphotericin B]: the hemolysis at 1 h, 32 µg/mL was determined as 53.5%.

For the origin of these results see publication PMC10120463 (Journal of Enzyme Inhibition and Medicinal Chemistry, 2023).
